Where two headings read alike, the source gives them in different places. Where only a bound is given, the exact number is not on record here.

The target of one series is T1, Aβ fibrils (Homo sapiens, UniProt P05067).
T1 construct: Aβ monomer
Particulars: read-out: Binding Affinity Ki; cited from earlier work.

For series [1], the target named is oligomers/polymers (Aβ1-42) (Homo sapiens, UniProt P05067). Put plainly: Biacore assay, Aβ42 oligomers/soluble polymers. Type of series: binding. Further details: key: A “+” sign represents a hit; ++: the increase in “+” signs relates to increasing binding affinity; +++: the increase in “+” signs relates to increasing binding affinity; A “−”sign represents no binding. Conditions: 10 uM. The procedure: β-Amyloid (Aβ42) Soluble Aggregates (Oligomers/Soluble Polymers). Biotin-LC-Aβ42 was mixed with Aβ42 at a ratio of 3:2. After dissolving in 1% NH4OH and dH2O, the mixture (40 uM concentration) was incubated in 1×PBS (pH 7.4) buffer at RT for 6-hours to form oligomers/soluble polymers. The free monomer of Aβ42 in the sample was removed using a Microcon centrifugal filter tube with a 10 KDa of MW cutoff. The Biotin-LC-Aβ42 oligomers/polymers were immobilized onto SA chip by streptavidin-biotin capture. Screening of Amyloid Binding Compounds with Biacore (Surface Plasmon Resonance Analysis). Aβ42 oligomers/soluble polymers or fibrils were immobilized on Flow Cell 2 (Fc2) or Flow Cell 3 (Fc3) of the Sensor Chip, with Fc1 serving as the control. […] The Flow Cells were then washed with running buffer (1×PBS) for 2 minute, and regenerated with 50 mM of NaOH for 30 seconds. The real time interaction between the screening compound and the amyloid aggregates immobilized on the chip surface was recorded in the sensorgram.
Chain of oligomers/polymers (Aβ1-42) (P05067 672-713 limits assumed): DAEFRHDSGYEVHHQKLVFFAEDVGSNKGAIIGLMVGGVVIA
A general note: SPR reads the build-up and loss of mass on a sensor chip optically.

Another series addresses fibrils (Aβ1-42) (Homo sapiens, UniProt P05067). Put plainly: Biacore assay, Aβ42 fibrils. It counts as binding. Further details: key: A “+” sign represents a hit; ++: the increase in “+” signs relates to increasing binding affinity; +++: the increase in “+” signs relates to increasing binding affinity; A “−”sign represents no binding. Conditions: 10 uM. The procedure:
β-Amyloid (Aβ42) Insoluble Aggregates (Fibrils). Fibrils were prepared according to methods published previously ([…] et al. 2001). Briefly, 0.5 mg of Aβ42 (Biotin-LC-Aβ42:Aβ42=1:1) was dissolved in 1 ml of PBS, pH 7.4, and mixed with a magnetic stir bar for 3 d at 37° C., resulting in a visibly cloudy solution. The fibril pellet was collected by centrifugation. The Biotin-LC-Aβ42 fibrils were immobilized onto SA chip by streptavidin-biotin capture. Screening of Amyloid Binding Compounds with Biacore (Surface Plasmon Resonance Analysis). Aβ42 oligomers/soluble polymers or fibrils were immobilized on Flow Cell 2 (Fc2) or Flow Cell 3 (Fc3) of the Sensor Chip, with Fc1 serving as the control. […] The Flow Cells were then washed with running buffer (1×PBS) for 2 minute, and regenerated with 50 mM of NaOH for 30 seconds. The real time interaction between the screening compound and the amyloid aggregates immobilized on the chip surface was recorded in the sensorgram.

The next series addresses T2, Aβ monomer (Homo sapiens, UniProt P05067).
T2 construct: Aβ monomer
Particulars: read-out: Binding Affinity IC50; cited from earlier work.

A short description of series [2]: microPET imaging of AD-CB-001 in rat. It counts as in vivo, Sprague-Dawley rat. Conditions: tail vein, 30 min dynamic microPET scan. The procedure: A white Sprague-Dawley rat was injected via tail vein with ˜850 uCi AD-CB-001, formulated in 10% EtOH:water. A dynamic scan was conducted for 30 min on a R4 microPET scanner. The data was reconstructed using 1 min framing.

Series [3] is described as follows: Grey to white matter binding, autoradiography of AD patient brain slices. Particulars: for Grey/white matter binding ratio using mild wash conditions: mild wash: 30%/40%/20% EtOH:water. Further details: species or system human. The procedure: A study was conducted to examine the grey to white matter binding ratios for 4 different tracers: CB-001, CB-003, FDDNP and F-PiB (FIG. 7 and FIG. 8 of U.S. Ser. No. 12/372,717). […] After the human brain slices from AD patients were incubated with a given tracer for 30 min, the slices were washed with various EtOH:water solutions in an attempt to optimize the grey to white matter ratios (FIG. 9 of U.S. Ser. No. 12/372,717). The results were surprising and unexpected in view of previous work performed by other researchers. CB-001 has a slightly higher c Log P than FDDNP (3.8 vs 3.4) and would be expected to have poorer washout than FDDNP based on these values. […] More specifically, the white matter binding of FDDNP is several shades darker than CB-001's white matter binding, indicating low non-specific binding of CB-001.

The next series has as its system amyloid binding pockets. Put plainly: Blocking of [18F]-CB001 autoradiography staining.
Another series deals with T3, tau (Homo sapiens, UniProt P10636).
T3 construct: Native forms of tau (various isoforms, hyperphosphorylated) and amyloid aggregates are present in brain sections and therefore preferred for compound testing
T3 sequence (P10636 623-758 limits assumed): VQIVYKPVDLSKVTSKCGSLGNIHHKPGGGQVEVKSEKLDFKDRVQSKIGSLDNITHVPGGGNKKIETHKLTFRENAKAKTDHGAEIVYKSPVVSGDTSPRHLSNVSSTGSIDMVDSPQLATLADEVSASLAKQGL
As to the kind of experiment: KD (tau) binding. Conditions: read-out: KD (tau). The text has this: (§1) When injected intravenously into mice, the Carbazole based compounds; in particular T807, T805 and T794 have shown excellent brain uptake. These compounds also display high binding affinity to tau fibrils. […] In neuropathological staining, compounds of the present invention stained amyloid plaques and/or tau aggregates.
(§2) Furthermore, the selectivity can be evaluated in brains containing only Aβ plaques/no tau aggregates, Aβ plaques/and tau aggregates, and control brains. Unfortunately, there are no AD brains with only tau and no Aβ present. By testing radiolabeled tracers in these brain sections, one can more quantitative evaluate the relative binding strength (signal strength) and selectivity of various test compounds as they all contain the same radioactive tracer. For examples, if a test tracer binds only to tau, and not amyloid, it should show no signal in the Aβ plaques only brain sections. If a compound binds only to amyloid, it should show uptake in both types of brains. The difficulty of identifying and further quantifying selective compounds lies in the relative abundance of amyloid vs. tau, which is difficult to measure.

Another series concerns tau/Ab. As to the kind of experiment: selectivity (tau/Ab). It counts as binding.
Source text: as §2

Series [4] is described as follows: GM Intensity (comp. with W372). Type of series: binding. Particulars: compared with W372.
A short description of series [5]: background in normal brain. Type of series: binding.
Source text: as §2

A short description of series [6]: Brain uptake in rats and mice. It counts as in vivo.
Series [7] in a line: Brain uptake after intravenous injection into mice. Type of series: in vivo. Conditions: injected intravenously into mice.
Source text: as §1

Another series addresses AchE (Homo sapiens, UniProt P22303). Put plainly: AchE activity (IC50). It counts as biochemical.
The target in another series is T4, MAO-A (Homo sapiens, UniProt P21397).
T4 sequence (P21397 1-527): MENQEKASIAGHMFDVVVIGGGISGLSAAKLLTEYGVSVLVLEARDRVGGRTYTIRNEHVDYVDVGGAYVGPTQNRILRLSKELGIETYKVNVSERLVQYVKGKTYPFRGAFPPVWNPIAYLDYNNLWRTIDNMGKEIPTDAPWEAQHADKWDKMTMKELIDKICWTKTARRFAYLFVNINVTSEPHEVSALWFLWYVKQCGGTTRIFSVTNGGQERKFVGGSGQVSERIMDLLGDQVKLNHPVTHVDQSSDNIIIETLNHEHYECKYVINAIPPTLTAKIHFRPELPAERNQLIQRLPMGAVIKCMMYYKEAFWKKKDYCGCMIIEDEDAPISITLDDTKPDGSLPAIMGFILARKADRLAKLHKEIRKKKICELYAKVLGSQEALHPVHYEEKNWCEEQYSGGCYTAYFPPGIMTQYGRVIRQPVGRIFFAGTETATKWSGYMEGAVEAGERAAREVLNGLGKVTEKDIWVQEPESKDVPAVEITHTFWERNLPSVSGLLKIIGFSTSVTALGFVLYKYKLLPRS
As to the kind of experiment: MAO inhibition, MAO-A. It counts as biochemical.

Another series has as its target T5, MAO-B (Homo sapiens, UniProt P27338).
T5 sequence (P27338 1-520): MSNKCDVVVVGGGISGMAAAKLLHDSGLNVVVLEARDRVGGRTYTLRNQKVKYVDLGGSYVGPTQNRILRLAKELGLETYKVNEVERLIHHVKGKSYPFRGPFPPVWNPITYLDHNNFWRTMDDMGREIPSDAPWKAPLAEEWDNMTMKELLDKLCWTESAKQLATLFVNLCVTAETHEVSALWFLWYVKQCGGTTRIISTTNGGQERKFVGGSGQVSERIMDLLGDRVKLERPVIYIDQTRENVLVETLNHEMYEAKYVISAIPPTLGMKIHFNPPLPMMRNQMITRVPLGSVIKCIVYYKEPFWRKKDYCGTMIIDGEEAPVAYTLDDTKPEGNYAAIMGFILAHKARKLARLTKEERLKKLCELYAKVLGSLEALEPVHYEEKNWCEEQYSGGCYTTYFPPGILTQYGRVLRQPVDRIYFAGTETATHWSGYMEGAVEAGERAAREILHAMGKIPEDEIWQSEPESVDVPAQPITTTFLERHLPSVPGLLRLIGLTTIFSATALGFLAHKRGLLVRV
As to the kind of experiment: MAO inhibition, MAO-B. Type of series: biochemical.

Another series has as its system tau/amyloid. Put plainly: Tx/tau/amyloid correlation. Type of series: binding.
The subject of another series is human hepatocytes. As to the kind of experiment: Metabolism in human hepatocytes. It counts as in vitro ADME.
Series [8] has as its target Amyloid (AD Patient's Brain Slice) (Homo sapiens, UniProt P05067). Put plainly: IC50 determination with [18F]-PiB by ex vivo competition assay using autoradiography staining. It counts as binding. The text has this: Ex Vivo Competition Assay Using Amyloid (AD Patient's Brain Slice) Autoradiography Staining

Chain of Amyloid (AD Patient's Brain Slice) (P05067 672-711 limits assumed): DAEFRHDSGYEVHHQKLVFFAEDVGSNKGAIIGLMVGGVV
T2 sequence (P05067 672-713 limits assumed): as the sequence (P05067 672-713 limits assumed) above
Chain of AchE (P22303 32-614): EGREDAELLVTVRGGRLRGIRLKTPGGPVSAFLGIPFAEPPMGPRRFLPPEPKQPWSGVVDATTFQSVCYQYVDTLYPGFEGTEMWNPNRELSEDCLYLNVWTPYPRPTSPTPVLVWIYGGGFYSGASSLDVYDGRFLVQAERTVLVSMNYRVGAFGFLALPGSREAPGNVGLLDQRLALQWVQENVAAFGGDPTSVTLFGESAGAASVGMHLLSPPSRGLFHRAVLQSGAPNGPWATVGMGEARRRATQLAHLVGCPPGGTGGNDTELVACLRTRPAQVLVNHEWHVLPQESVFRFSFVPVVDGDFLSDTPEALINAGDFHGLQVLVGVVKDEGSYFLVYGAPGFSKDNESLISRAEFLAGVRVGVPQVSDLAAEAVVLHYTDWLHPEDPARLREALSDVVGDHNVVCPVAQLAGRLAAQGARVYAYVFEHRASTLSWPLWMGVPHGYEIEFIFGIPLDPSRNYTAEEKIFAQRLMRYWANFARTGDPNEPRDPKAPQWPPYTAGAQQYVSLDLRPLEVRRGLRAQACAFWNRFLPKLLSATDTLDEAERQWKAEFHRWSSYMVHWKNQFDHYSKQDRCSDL
Chain of fibrils (Aβ1-42) (P05067 672-713 limits assumed): as the sequence (P05067 672-713 limits assumed) above
T1 sequence (P05067 672-713 limits assumed): as above

For orientation: Ki means the equilibrium dissociation constant of an inhibitor or competing ligand from its target. Consider `[11CH3]Nc1ccc(-c2cc3ccc(O)cc3o2)cc1`, for which the Ki on Aβ fibrils was 2.8 nM.
Take `Oc1ccc2c(c1)[nH]c1ccccc12` [2-Hydroxycarbazole]: the “Binding to oligomers/polymers (Aβ1-42)” value in series [1] was “+++”. At fibrils (Aβ1-42), the “Binding to fibrils (Aβ1-42)” value was “+”.
For orientation: IC50 means the concentration needed to halve the response being measured. As to `O=S(=O)(O)c1cccc2cccc(Nc3ccccc3)c12` [ANS], the concentration for half-maximal inhibition (IC50) on Aβ monomer was above 100000 nM.
Regarding `FCCOc1ccc2c(c1)[nH]c1ccccc12` [CB-001, 2-(2-fluoroethoxy)-9H-carbazole], the “brain entry and washout” value in series [2] is “entered the rat brain and quickly washed out”. The non-specific binding propensity result in [3] (compared to FDDNP) is on record as “lower”. For the same molecule, the “Grey/white matter binding ratio using harsh FDDNP wash conditions” value in series [3] (harsh FDDNP wash: 70%/90%/70% EtOH:water) is reported as “Excellent”. Further, in [3], the “Grey/white matter binding ratio using mild wash conditions” value was “Poor”. Besides, the “grey to white matter ratio” value in [3] (original wash, text b480) is given as “much better”.
Take `FCCOCCOCCOc1ccc2c(c1)[nH]c1ccccc12` [CB-003, 2-(2-(2-(2-fluoroethoxy)ethoxy)ethoxy)-9H-carbazole]: the “differentiation of healthy and AD brain” value in series [3] (mild wash protocol) was “clearly differentiate between a healthy brain and an AD brain”. Also, the “Grey/white matter binding ratio using mild wash conditions” value in [3] is “Excellent”. For the same molecule, in [3] (milder washing conditions, text b481), the “grey to white matter binding ratios” value was “excellent”.
On to `Nc1c(/N=N/c2ccc(-c3ccc(/N=N/c4cc(S(=O)(=O)O)c5ccccc5c4N)cc3)cc2)cc(S(=O)(=O)O)c2ccccc12` [Congo Red], for which, on Aβ monomer, the IC50 is 2000 to 10000 nM.
As to `COc1cc(/C=C/C(=O)/C=C(O)/C=C/c2ccc(O)c(OC)c2)ccc1O` [Curcumin], on Aβ monomer, the 50% inhibitory concentration (IC50) is 10000 to 20000 nM.
On to `CC(=C(C#N)C#N)c1ccc2cc(N(C)CCF)ccc2c1` [FDDNP], for which the “blocking of [18F]-CB001 staining” value with amyloid binding pockets was “much less capable of blocking”.
Still for that read-out and setting: for `CNc1ccc(-c2nc3ccc(O)cc3s2)cc1` [PiB] the value was “blocks [18F]-CB001 staining with increasing concentrations”.
A word on the Kd: it is the free concentration of one partner at which half of the binding sites on the other are occupied at equilibrium, for simple one-to-one binding. The term inhibition denotes the percentage by which the read-out fell short of the control. Turning to `FCCc1ccc2c(c1)[nH]c1ccncc12` [T805, 7-(2-Fluoroethyl)-5H-pyrido[4,3-b]indole], at tau, the Kd came out at 32 nM. Further, the “selectivity (tau/Ab)” value with tau/Ab turned out to be 14x. Also, in [4], the “GM Intensity (comp. with W372)” value is on record as 8%. The “background (normal brain 32566) PSL/mm2” value in series [5] is listed as 49 PSL/mm2. For the same molecule, the Brain uptake entry was “yes (2 rats, 2 mice)” in series [6] and “excellent” in [7]. On AchE (at 10 uM), the “AchE activity, effect at 10 uM” value is given as below 50% at 10 uM. The inhibition at 1 µM on MAO-A and against MAO-B was 0% in each case.
For the molecule `Fc1ccc(-c2ccc3c(c2)[nH]c2ccncc23)cn1` [T807, 7-(6-Fluoropyridine-3-yl)-5H-pyrido[4,3-b]indole], the Kd on tau was 15 nM. Moreover, the “selectivity (tau/Ab)” value in the series on tau/Ab came to 29x. Further, the “GM Intensity (comp. with W372)” value in series [4] is listed as 28%. Moreover, the “background (normal brain 32566) PSL/mm2” value in [5] is reported as 61 PSL/mm2. Besides, the Tx/tau/amyloid correlation result with tau/amyloid is recorded as “yes”. Moreover, the Brain uptake entry in series [6] is on record as “yes (3 rats, 3 mice)”; in series [7], “excellent”. Moreover, in the series with human hepatocytes, the “human hepatocytes (metabolic stability)” value is “somewhat stable”. The molecule further registered a half-inhibitory concentration (IC50) against AchE of 6000 nM. The inhibition at 1 µM on MAO-A and against MAO-B was 0% in each case.
For F-PiB, the overall signal result in [3] is recorded as “very weak”. Also, the half-maximal inhibitory concentration (IC50) in series [8] (average of determinations, read-out: Average IC50) worked out at 45 nM; in series [8] (determination 9, read-out: IC50 9) it was 40 nM; in series [8] (determination 10, read-out: IC50 10), 50 nM; in series [8] (determination 11, read-out: IC50 11), 55 nM; in series [8] (determination 12, read-out: IC50 12) it was 41 nM.
For the molecule Harmol, in series [1], the “Binding to oligomers/polymers (Aβ1-42)” value is “++”. Moreover, at fibrils (Aβ1-42), the “Binding to fibrils (Aβ1-42)” value is on record as “+”.

(Values after patent US20150030540A1 (Eli Lilly and Company, priority 2008, published 2015).)
